Laboratory results reported in patent publication US9877957B2, “Tetrahydroisoquinoline derivatives useful as inhibitors of diacylglyceride O-acyltransferase 2” (Merck Sharp & Dohme Corp., priority 2014, dated 2018).
Values belong to the molecule of their own block, whether it stands above or below them.

Target: hDGAT2 (Homo sapiens (Human), UniProt Q96PD7)
Assay: DGAT2 Enzymatic Activity Assay (triolein formation, LC/MS/MS)
Type: biochemical
Conditions: Sf-9 membrane prep expressing hDGAT2; 25 μM diolein, 10 μM oleoyl-CoA; room temperature; read-out: IC50 values for inhibition of DGAT2
Method in brief: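 Untagged hDGAT2 in Sf-9 membranes (10 ng/μL) with 25 μM diolein and 10 μM oleoyl-CoA in 100 mM Tris·Cl pH 7.0, 20 mM MgCl2, 5% ethanol at room temperature. Triolein measured by LC/MS/MS against spiked internal standard; IC50 from 4-parameter sigmoidal fit of % inhibition.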

Chain of hDGAT2 (Q96PD7 whole entry): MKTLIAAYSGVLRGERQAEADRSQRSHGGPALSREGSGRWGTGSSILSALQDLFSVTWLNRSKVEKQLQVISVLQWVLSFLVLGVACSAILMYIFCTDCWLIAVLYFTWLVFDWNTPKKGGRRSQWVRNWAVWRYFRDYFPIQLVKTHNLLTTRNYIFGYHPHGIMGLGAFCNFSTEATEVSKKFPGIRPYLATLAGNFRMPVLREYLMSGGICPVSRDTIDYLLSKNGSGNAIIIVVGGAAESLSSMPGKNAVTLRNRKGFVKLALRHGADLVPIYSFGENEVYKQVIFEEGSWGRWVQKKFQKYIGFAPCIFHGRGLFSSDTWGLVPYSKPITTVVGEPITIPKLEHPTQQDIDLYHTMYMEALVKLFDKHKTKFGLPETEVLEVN

SMILES: CC(NC(=O)c1ccc(-c2cccc(OC(F)(F)F)c2)c2c1CN(C(=O)NC(C)(C)C)CC2)c1nc(-c2ccccn2)no1 (stereo not shown) [Example 73, N^2-(tert-butyl)-N^8-(1-(3-(pyridin-2-yl)-1,2,4-oxadiazol-5-yl)ethyl)-5-(3-(trifluoromethoxy)phenyl)-3,4-dihydroisoquinoline-2,8(1H)-dicarboxamide]
IC50: 511 nM

SMILES: CC(C)(C)NC(=O)N1CCc2c(-c3cccc(OC(F)(F)F)c3)ccc(C(=O)NCCn3ccnn3)c2C1 [Example 76, N^8-(2-(1H-1,2,3-triazol-1-yl)ethyl)-N^2-(tert-butyl)-5-(3-(trifluoromethoxy)phenyl)-3,4-dihydroisoquinoline-2,8(1H)-dicarboxamide]
IC50: 2580 nM

SMILES: CC(CNC(=O)c1ccc(-c2cccc(OC(F)(F)F)c2)c2c1CN(C(=O)NC(C)(C)C)CC2)c1cccnc1 (stereo not shown) [Example 78, N^2-(tert-butyl)-N^8-(2-(pyridin-3-yl)propyl)-5-(3-(trifluoromethoxy)phenyl)-3,4-dihydroisoquinoline-2,8(1H)-dicarboxamide]
IC50: 1180 nM

SMILES: CC(C)(C)NC(=O)N1CCc2c(-c3cccc(OC(F)(F)F)c3)ccc(C(=O)NCc3cccc4ccnn34)c2C1 [Example 79, N^2-(tert-butyl)-N^8-(pyrazolo[1,5-a]pyridin-7-ylmethyl)-5-(3-(trifluoromethoxy)phenyl)-3,4-dihydroisoquinoline-2,8(1H)-dicarboxamide]
IC50: 149 nM

SMILES: CC(C)(C)NC(=O)N1CCc2c(-c3cccc(OC(F)(F)F)c3)ccc(C(=O)NCc3cc(-c4ccccn4)no3)c2C1 [Example 80, N^2-(tert-butyl)-N^8-((3-(pyridin-2-yl)isoxazol-5-yl)methyl)-5-(3-(trifluoromethoxy)phenyl)-3,4-dihydroisoquinoline-2,8(1H)-dicarboxamide]
IC50: 524 nM

SMILES: CC(C)(C)NC(=O)N1CCc2c(-c3cccc(OC(F)(F)F)c3)ccc(C(=O)NCc3cnn4ccccc34)c2C1 [Example 81, N^2-(tert-butyl)-N^8-(pyrazolo[1,5-a]pyridin-3-ylmethyl)-5-(3-(trifluoromethoxy)phenyl)-3,4-dihydroisoquinoline-2,8(1H)-dicarboxamide]
IC50: 370 nM

Results, then the molecule that gave them:

IC50: 244 nM
SMILES: Cc1nonc1CNC(=O)c1ccc(-c2cccc(C(F)(F)F)c2)c2c1CN(C(=O)NC(C)(C)C)CC2 [Example 67, N^2-(tert-butyl)-N^8-((4-methyl-1,2,5-oxadiazol-3-yl)methyl)-5-(3-(trifluoromethyl)phenyl)-3,4-dihydroisoquinoline-2,8(1H)-dicarboxamide]

IC50: 474 nM
SMILES: Cn1ccnc1CNC(=O)c1ccc(-c2cccc(C(F)(F)F)c2)c2c1CN(C(=O)NC(C)(C)C)CC2 [Example 68, N^2-(tert-butyl)-N^8-((1-methyl-1H-imidazol-2-yl)methyl)-5-(3-(trifluoromethyl)phenyl)-3,4-dihydroisoquinoline-2,8(1H)-dicarboxamide]

IC50: 178 nM
SMILES: CC(C)(C)NC(=O)N1CCc2c(-c3cccc(C(F)(F)F)c3)ccc(C(=O)NCCn3cnnc3)c2C1 [Example 71, N^8-(2-(4H-1,2,4-triazol-4-yl)ethyl)-N^2-(tert-butyl)-5-(3-(trifluoromethyl)phenyl)-3,4-dihydroisoquinoline-2,8(1H)-dicarboxamide]

IC50: 659 nM
SMILES: CC(NC(=O)c1ccc(-c2cccc(C(F)(F)F)c2)c2c1CN(C(=O)NC(C)(C)C)CC2)c1nncs1 (stereo not shown) [Example 72, N^8-(1-(1,3,4-thiadiazol-2-yl)ethyl)-N^2-(tert-butyl)-5-(3-(trifluoromethyl)phenyl)-3,4-dihydroisoquinoline-2,8(1H)-dicarboxamide]

IC50: 1540 nM
SMILES: CC(C)(C)NC(=O)N1CCc2c(-c3cccc(OC(F)(F)F)c3)ccc(C(=O)NCc3cn4ccsc4n3)c2C1 [Example 74, N^2-(tert-butyl)-N^8-(imidazo[2,1-b]thiazol-6-ylmethyl)-5-(3-(trifluoromethoxy)phenyl)-3,4-dihydroisoquinoline-2,8(1H)-dicarboxamide]

IC50: 2490 nM
SMILES: CC(C)(C)NC(=O)N1CCc2c(-c3cccc(OC(F)(F)F)c3)ccc(C(=O)NCc3nnc4n3CCC4)c2C1 [Example 75, N^2-(tert-butyl)-N^8-((6,7-dihydro-5H-pyrrolo[2,1-c][1,2,4]triazol-3-yl)methyl)-5-(3-(trifluoromethoxy)phenyl)-3,4-dihydroisoquinoline-2,8(1H)-dicarboxamide]

IC50: 867 nM
SMILES: CC(CNC(=O)c1ccc(-c2cccc(OC(F)(F)F)c2)c2c1CN(C(=O)NC(C)(C)C)CC2)c1cnco1 (stereo not shown) [Example 77, N^2-(tert-butyl)-N^8-(2-(oxazol-5-yl)propyl)-5-(3-(trifluoromethoxy)phenyl)-3,4-dihydroisoquinoline-2,8(1H)-dicarboxamide]
